One may read the IC50 as the concentration at which inhibition is half-maximal.

In US7087623B2, “Thiazole and other heterocyclic ligands for mammalian dopamine, muscarinic and serotonin receptors and transporters, and methods of use thereof” (Sepracor Inc., priority 2001, dated 2006) one finds IC50 data, which are given here for 25 molecules.

Assay [1] deals with T1, human dopamine D3 receptor (Homo sapiens, UniProt P35462).
T1 construct: expressed in transfected cells; host or cells: CHO
Nature of the assay: Radioligand binding assay, human dopamine D3 receptors ([3H]Spiperone). To be noted: human; Example 100 table; read-out: IC50 (nM) D3. How it is done: The assay for binding to human D3 receptors was conducted according to Sokoloff, P. et al. Nature 1990, 347, 146.
CHO cells stably transfected with a plasmid encoding the human dopamine D3 receptor were used to prepare membranes in modified Tris-HCl pH 7.4 buffer using standard techniques. […] Non-specific binding was estimated in the presence of 25 μM S-(−)-sulpiride. […] See Sokoloff, P. et al. “Molecular cloning and characterization of a novel dopamine receptor (D3) as a target for neuroleptics” Nature 347: 146–151, 1990.
(§1) The human 5-HT2a and 5-HT2b screens were conducted according to Bonhaus, D. W. et al. Br. J. Pharmacol. 1995, 115, 622. The human […], W. A. et al. J. Neurochem. 1997, 69, 1449. The human 5-HT6 screen was conducted according to Monsama, F. J. et al. Mol. Pharmacol. 1993, 43, 320. The assay to human D3 receptors was conducted according to Sokoloff, P. et al. Nature 1990, 347;146. The human dopamine transporter assay was conducted according to Gu, H. et. al. J. Biol. Chem. 1994, 269 (10);7124; and Giros, B. et al. Trends. Pharmacol. Sci. 1993, 14: 43. The human muscarinic M1–M4 screens were conducted according to Buckley N. J. et al. Mol. Pharmacol. 1989, 35:469.

The target in assay [2] is T2, human serotonin 5-HT6 receptor (Homo sapiens, UniProt P50406).
T2 construct: expressed in transfected cells; host or cells: HeLa/E6-7
Nature of the assay: Radioligand binding assay, human 5-HT6 receptors ([3H]LSD). As to conditions: human; Example 100 table; read-out: IC50 (nM) 5-HT6. How it is done:
(§2) The human 5-HT2a and 5-HT2b screens were conducted according to Bonhaus, D. W. et al. Br. J. Pharmacol. 1995, 115, 622. The human 5-HT2c screen was conducted according to Wolf, W. A. et al. J. Neurochem. 1997, 69, 1449. The human 5-HT6 screen was conducted according to Monsma, F. J. et al. Mol. Pharmacol. 1993, 43, 320.
This assay measures binding of [^3H]LSD (lysergic acid diethylamide) to human serotonin 5-HT6 receptors. HeLa/E6–7 cells stably transfected with a plasmid encoding the human serotonin 5-HT6 receptor were used to prepare membranes in modified Tris-HCl pH 7.4 buffer using standard techniques. A 30 μg aliquot of membrane was incubated with 1.5 nM [^3H]LSD for 120 minutes at 37° C. Non-specific binding was estimated in the presence of 5 μM 5-HT. Membranes were filtered and washed 3 times and the filters were counted to determine [^3H]LSD specifically bound. See Monsma, Jr., F. J. et al. “Cloning and expression of a novel serotonin receptor with high affinity for tricyclic psychotropic drugs” Mol. Pharmacol. 43: 320–327, 1993.
as §1

The target of assay [3] is T3, human serotonin 5-HT2A receptor (Homo sapiens, UniProt P28223).
T3 construct: expressed in transfected cells; host or cells: CHO-K1
The assay can be described thus: Radioligand binding assay, human 5-HT2A receptors ([3H]Ketanserin). As to conditions: human; Example 100 table; read-out: IC50 (nM) 5-HT2A. Here is the method: as §2
CHO-K1 cells stably transfected with a plasmid encoding the human serotonin 5-HT2A receptor were used to prepare membranes in modified Tris-HCl pH 7.7 buffer using standard techniques. […] Non-specific binding was estimated in the presence of 1 μM mianserin. […] See Bonhaus, D. W. et al. “The pharmacology and distribution of human 5-hydroxytryptamine2B (5-HT2B) receptor gene products: comparison with 5-HT2A and 5-HT2C receptors” Brit. J. Pharmacol. 115: 622–628, 1995; and Saucier, C and Albert, P. R. “Identification of an endogenous 5-hydroxytryptamine2A receptor in NIH-3T3 cells: agonist-induced down-regulation involves decreases in receptor RNA and number” J. Neurochem. 68: 1998–2011, 1997.
as §1

For assay [4], the target named is T4, human serotonin 5-HT2C receptor (Homo sapiens, UniProt P28335).
T4 construct: expressed in transfected cells; host or cells: CHO-K1
T4 sequence (P28335 33-458): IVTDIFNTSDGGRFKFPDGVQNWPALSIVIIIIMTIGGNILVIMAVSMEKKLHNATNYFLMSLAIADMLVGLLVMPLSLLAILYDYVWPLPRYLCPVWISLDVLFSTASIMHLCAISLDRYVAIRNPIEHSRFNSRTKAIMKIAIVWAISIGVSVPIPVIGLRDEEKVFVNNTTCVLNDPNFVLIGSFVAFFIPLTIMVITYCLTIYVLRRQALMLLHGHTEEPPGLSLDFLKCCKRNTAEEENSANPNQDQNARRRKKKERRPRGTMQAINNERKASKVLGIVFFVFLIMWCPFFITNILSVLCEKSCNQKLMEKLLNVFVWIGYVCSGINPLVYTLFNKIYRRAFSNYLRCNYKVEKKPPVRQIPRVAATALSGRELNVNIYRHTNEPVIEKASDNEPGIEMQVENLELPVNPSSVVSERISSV
The assay can be described thus: Radioligand binding assay, human 5-HT2C receptors ([3H]Mesulergine). To be noted: human; Example 100 table; read-out: IC50 (nM) 5-HT2C. How it is done: as §2
CHO-K1 cells stably transfected with a plasmid encoding the human serotonin 5-HT2C receptor were used to prepare membranes in modified Tris-HCl pH 7.7 buffer using standard techniques. […] Non-specific binding was estimated in the presence of 1 μM mianserin. […] See Wolf, W. A. and Schutz, J. S. “The serotonin 5-HT2C receptor is a prominent serotonin receptor in basal ganglia: evidence from functional studies on serotonin-mediated phosphoinositide hydrolysis” J. Neurochem. 69: 1449–1458, 1997.
as §1

T1 sequence (P35462 whole entry): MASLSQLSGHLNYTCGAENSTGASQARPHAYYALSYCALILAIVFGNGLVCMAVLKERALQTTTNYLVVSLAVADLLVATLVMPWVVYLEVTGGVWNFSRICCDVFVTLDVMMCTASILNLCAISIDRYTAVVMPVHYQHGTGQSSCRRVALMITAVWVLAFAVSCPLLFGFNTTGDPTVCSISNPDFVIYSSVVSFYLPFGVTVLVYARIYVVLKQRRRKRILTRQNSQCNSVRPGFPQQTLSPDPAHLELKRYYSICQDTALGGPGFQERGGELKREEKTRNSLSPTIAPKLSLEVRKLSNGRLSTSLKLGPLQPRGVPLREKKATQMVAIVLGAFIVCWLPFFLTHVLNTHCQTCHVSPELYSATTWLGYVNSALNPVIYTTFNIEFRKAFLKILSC
T3 sequence (P28223 whole entry): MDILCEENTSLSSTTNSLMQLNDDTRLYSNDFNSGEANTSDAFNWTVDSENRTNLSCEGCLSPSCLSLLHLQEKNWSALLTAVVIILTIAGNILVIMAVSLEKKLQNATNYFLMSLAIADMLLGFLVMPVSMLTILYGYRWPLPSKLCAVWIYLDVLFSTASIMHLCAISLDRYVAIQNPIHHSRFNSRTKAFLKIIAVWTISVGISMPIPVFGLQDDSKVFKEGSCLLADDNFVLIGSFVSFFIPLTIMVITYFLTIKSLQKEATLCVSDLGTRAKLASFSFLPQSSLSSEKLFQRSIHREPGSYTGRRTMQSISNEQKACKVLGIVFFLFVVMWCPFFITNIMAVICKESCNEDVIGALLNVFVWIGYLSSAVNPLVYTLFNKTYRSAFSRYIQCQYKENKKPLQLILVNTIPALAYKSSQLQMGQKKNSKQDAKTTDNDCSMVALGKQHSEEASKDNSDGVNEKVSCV
T2 sequence (P50406 whole entry): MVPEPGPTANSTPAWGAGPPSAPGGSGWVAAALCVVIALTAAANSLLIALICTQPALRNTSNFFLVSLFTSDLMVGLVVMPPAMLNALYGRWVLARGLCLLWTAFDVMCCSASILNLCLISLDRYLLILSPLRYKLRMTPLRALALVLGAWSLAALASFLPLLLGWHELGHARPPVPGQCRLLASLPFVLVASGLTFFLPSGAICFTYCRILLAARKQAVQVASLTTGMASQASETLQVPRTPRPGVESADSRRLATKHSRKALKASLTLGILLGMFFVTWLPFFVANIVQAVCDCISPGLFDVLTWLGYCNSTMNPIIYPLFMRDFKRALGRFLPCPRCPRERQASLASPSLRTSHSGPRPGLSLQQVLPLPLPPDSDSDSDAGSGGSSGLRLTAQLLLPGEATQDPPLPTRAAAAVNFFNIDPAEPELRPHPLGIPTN

With `Clc1ccc(C2(c3csc(N4CCC(N5CCCCC5)CC4)n3)CCCCC2)cc1` [Compound 107], the IC50 in assay [1] was less than 1000 nM; in assay [2], greater than 1000 nM.

Regarding `Clc1ccc(C2(c3csc(N4CCOCC4)n3)CCOCC2)cc1` [Compound 124, 4-{4-[4-(4-Chloro-phenyl)-tetrahydro-pyran-4-yl]-thiazol-2-yl}-morpholine], the IC50 in assay [1], in assay [2], in assay [3] and in assay [4] was greater than 1000 nM throughout.

For the molecule `Clc1ccc(C2(c3csc(N4CCNCC4)n3)CCCC2)cc1` [Compound 109], the results for the IC50 in assay [1] and in assay [2] were less than 1000 nM and less than 100 nM, respectively.

As for `Clc1ccc(C2(c3csc(NCCN4CCOCC4)n3)CCCCC2)cc1` [Compound 102], the half-maximal inhibitory concentration (IC50) was greater than 1000 nM in assay [1] and less than 1000 nM in assay [2].

Regarding `Clc1ccc(C2(c3csc(NC4CCN(Cc5ccccc5)C4)n3)CCCCC2)cc1` (stereo not shown) [Compound 119], the IC50 in assay [1] and in assay [2] was greater than 1000 nM in each case.

Take `Fc1ccccc1C1(c2csc(NCCCN3CCOCC3)n2)CCCC1` [Compound 96]: the IC50 in assay [1], in assay [2], in assay [3] and in assay [4] was greater than 1000 nM throughout.

On to `Clc1ccc(C2(c3csc(NCCCN4CCOCC4)n3)CCCCC2)cc1` [Compound 94, {4-[1-(4-chloro-phenyl)-cyclohexyl]-thiazol-2-yl}-(3-morpholin-4-yl-propyl)-amine], for which the IC50 in assay [1] was greater than 1000 nM; in assay [2], less than 1000 nM; in assay [3] it was greater than 1000 nM; in assay [4] it was less than 1000 nM.

Take `CCN(CC)CCCNc1nc(C2(c3ccc(Cl)cc3)CCCCC2)cs1` [Compound 103]: the IC50 in assay [1], in assay [2], in assay [3] and in assay [4] was less than 1000 nM each time.

Take `CN(C)C1CCN(c2nc(C3(c4ccc(Cl)cc4)CCCC3)cs2)C1` (stereo not shown) [Compound 118]: the IC50 in assay [1] is greater than 1000 nM; in assay [2], less than 1000 nM.

On to `CN1CCCN(c2nc(C3(c4ccc(Cl)cc4)CCCC3)cs2)CC1` [Compound 105], for which the IC50 is less than 100 nM in assay [1], less than 1000 nM in assay [2], less than 1000 nM in assay [3] and less than 1000 nM in assay [4].

`Fc1ccccc1C1(c2csc(N3CCN(Cc4ccc(Cl)cc4)CC3)n2)CCCC1` [Compound 110]: the IC50 in assay [1] and in assay [2] was greater than 1000 nM throughout.

On to `CCN(CC)CCCNc1nc(C2(c3cccc(Cl)c3)CCOCC2)cs1` [Compound 98, N-{4-[4-(3-chloro-phenyl)-tetrahydro-pyran-4yl]-thiazol-2-yl}-N,N-diethyl-propane-1,3-diamine], for which the IC50 in assay [1] and in assay [2] was greater than 1000 nM in each case.

As for `CN1CCCN(c2nc(C3(c4ccc(Cl)cc4)CCCCC3)cs2)CC1` [Compound 115], the IC50 in assay [1] and in assay [2] was less than 1000 nM each time.

With `Fc1ccccc1C1(c2csc(N3CCNCC3)n2)CCCCC1` [Compound 127, 1-{4-[1-(2-Fluorophenyl)-cyclohexyl]-thiazol-2-yl}-piperazine], the results for the IC50 in assay [1] and in assay [2] were less than 1000 nM and less than 100 nM, respectively.

As for `CCN1CCCC1CNc1nc(C2(c3ccccc3F)CCCCC2)cs1` (racemic) [Compound 131, (1-ethyl-pyrrolidin-2-ylmethyl)-{4-[1-(2-fluorophenyl)-cyclohexyl]-thiazol-2-yl}-amine], the IC50 in assay [1] and in assay [2] was less than 1000 nM in each case.

On to `CN1CCC(N(C)c2nc(C3(c4ccc(Cl)cc4)CCCCC3)cs2)C1` (stereo not shown) [Compound 108], for which the IC50 is less than 1000 nM in assay [1] and less than 100 nM in assay [2].

In the case of `CN1CCCC1CCNc1nc(C2(c3ccc(Cl)cc3)CCCCC2)cs1` (stereo not shown) [Compound 95, {4-[1-(4-chloro-phenyl)-cyclohexyl]-thiazol-2-yl}-[2-(1-methyl-pyrrolidin-2-yl)-ethyl] amine], the IC50 in assay [1], in assay [2], in assay [3] and in assay [4] was less than 1000 nM each time.

Regarding `CN(C)C1CCN(c2nc(C3(c4ccc(Cl)cc4)CCCCC3)cs2)C1` (stereo not shown) [Compound 117], the half-inhibitory concentration (IC50) in assay [1] and in assay [2] was greater than 1000 nM in each case.

In the case of `CN(C)C1CCN(c2nc(C3(c4ccccc4F)CCCCC3)cs2)C1` (racemic) [Compound 136, (1-{4-[1-(2-Fluoro-phenyl)-cyclohexyl]-thiazol-2-yl}-pyrrolidin-3-yl)-dimethylamine], the IC50 in assay [1] and in assay [2] was greater than 1000 nM each time.

On to `CN1CCCC1CCNc1nc(C2(c3ccccc3F)CCCCC2)cs1` (single isomer, unassigned) [Compound 129, {4-[1-(2-fluorophenyl)-cyclohexyl]-thiazol-2-yl}-[2-(1-methyl-pyrrolidin-2-yl)-ethyl]-amine], for which the half-inhibitory concentration (IC50) in assay [1], in assay [2], in assay [3] and in assay [4] was less than 1000 nM each time.

As for `COc1ccccc1N1CCN(c2nc(C3(c4ccccc4F)CCCCC3)cs2)CC1` [Compound 97], the IC50 in assay [1], in assay [2], in assay [3] and in assay [4] was greater than 1000 nM each time.

`CNC1CCN(c2nc(C3(c4ccc(Cl)cc4)CCCCC3)cs2)C1` (stereo not shown) [Compound 106]: the IC50 in assay [1], in assay [2], in assay [3] and in assay [4] was greater than 1000 nM in each case.

For the molecule `Clc1ccc(C2(c3csc(NCCCN4CCOCC4)n3)CCCC2)cc1` [Compound 100], the IC50 in assay [1] is greater than 1000 nM; in assay [2], less than 1000 nM; in assay [3], greater than 1000 nM; in assay [4], less than 1000 nM.

Regarding `Clc1ccc(C2(c3csc(NCCN4CCCCC4)n3)CCCC2)cc1` [Compound 101], the IC50 in assay [1] and in assay [2] was less than 1000 nM in each case.

As to `CCN(CC)CCCNc1nc(C2(c3ccccc3F)CCCC2)cs1` [Compound 114], the IC50 in assay [1] and in assay [2] was greater than 1000 nM in each case.
